Experimental data from US5594009A, “Fused pyrrolocarbazoles” (priority 1995, dated 1997).
Values belong to the compound of their own block, whether it stands above or below them.

Legend:
protein kinase C ("PKC") = settings: cited from earlier work
trk tyrosine kinase = settings: cited from earlier work
[1] = test system: transcription of IFNα genes; settings: not associated with the inhibition of protein kinase C; cited from earlier work
human keratinocytes = settings: cited from earlier work
[2] = test system: choline acetyltransferase (ChAT) activity in dissociated rat embryonic spinal cord culture; experiment: Spinal Cord ChAT Activity Assay; assay type: cell-based; settings: ChAT measured after 48 hours
Protocol: In these assays, a fused pyrrolocarbazole was directly added to a dissociated spinal cord culture. […] The fused pyrrolocarbazole was added on the same day the dissociated spinal cord cell culture was initiated.
Methods: Fetal rat spinal cord cells were dissociated, and experiments were performed as described (Smith et al., J. Cell Biology., 101:1608-1621 (1985); Glicksman et al., J. Neurochem. 61:210-221 (1993)). Dissociated cells were prepared from spinal cords dissected from rats (embryonic day 14-15) by standard trypsin dissociation techniques (Smith et al., J. Cell Biology 10:1608-1621 (1985)). Cells were plated at 6×10^5 cells/cm^2 on poly-1-ornithine coated plastic tissue culture wells in serum-free N2 medium supplemented with 0.05% bovine serum albumin (BSA) (Bottenstein et al., PNAS USA 514-517 (1979)). Cultures were incubated at 37° C. in a humidified atmosphere of 5% CO2 /95% air for 48 hours. ChAT activity was measured after 2 days it vitro using a modification of the Fonnum procedure (Fonnum, J. Neurochem. 24:407-409 (1975)) according to McManaman et al. and Glicksman et al. (McManaman et al., Developmental Biology 125:311-320 (1988); Glicksman et al., J. Neurochem. 61:210-221 (1993)).

[3] = test system: ChAT activity of basal forebrain cultures; experiment: Basal Forebrain ChAT Activity Assay; assay type: cell-based, rat
Outline: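 Basal forebrain neurons from E17–18 rat embryos were Dispase-dissociated and plated at 5×10^4 cells/well on poly-ornithine/laminin. Cultures were kept in serum-free N2 medium with 0.05% BSA at 37° C. ChAT activity was measured 5 days after plating as the read-out for compound-induced increase.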

[4] = test system: chick dorsal root ganglion neurons; experiment: DRG Neurite Outgrowth Assay; assay type: cell-based; settings: compound concentration 200 nM; 48 hours
Protocol: Fused pyrrolocarbazoles promoted nerve fiber (i.e., neurite) outgrowth in explant (i.e., primary) cultures of chick dorsal root ganglion neurons. Dorsal root ganglion (i.e., DRG) nerve fiber outgrowth was increased when a fused pyrrolocarbazole was added to cultures at a concentration of 200 nM (Table IV). Control cultures consisted of: 1) no added NGF or fused pyrrolocarbazole ("Control"), or 2) 50 ng/ml NGF, a neurotrophin known to promote neurite extension in DRG cultures ("NGF").
Methods: Dorsal root ganglia were dissected from chick embryos (embryonic day 9) and individual ganglia were plated on poly-1-ornithine and laminin coated plates. A fused pyrrolocarbazole or 50ng/ml NGF was each added to independent cultures after allowing a 1-2 hour cell attachment period. Explants were cultured for 48 hours in serum-free N2 medium supplemented with 0.05% BSA (Bottenstein et al., PNAS USA 76:514-517 (1979)). Cultures were maintained at 37° C. in a humidified atmosphere, 5% CO2 /95% air. Nerve fiber outgrowth was assessed by the density and length of neurites. It should be apparent to those skilled in the art that neurite extension assays are semi-quantitative and involve a visual comparison between control and experimental neuronal cell cultures (Alberts et al., Molecular Biology of the Cell, 2ed. Garland Publishing, Inc., New York (1989).

[5] = test system: NT-3 induced ChAT activity of rat basal forebrain cultures; experiment: Enhancement of Neurotrophin (NT-3) Activity Assay, ChAT activity in basal forebrain cultures; assay type: cell-based
Protocol: Fused pyrrolocarbazoles were tested for the ability to enhance the activity of the neurotrophin NT-3 in basal forebrain cultures. ChAT activity was assayed as a measure of cholinergic neuron function and survival. The concentration of NT-3 (100 ng/ml) used in these experiments increased ChAT activity over control cultures (untreated with NT-3 or a fused pyrrolocarbazole) by 140%.
Methods. Basal forebrain cultures were prepared from embryonic rats (embryonic day 17) and dissociated with the neutral protease Dispase™. Cells were plated at a density of 4×10^5 cells/cm^2 on poly-1-ornithine coated plastic tissue culture plates in a mixture of DMEM and F12 media (50/50 v/v GIBCO) supplemented with 5% horse serum and 0.5% fetal bovine serum. Cells were incubated at 37° C. in a humidified atmosphere of 5% CO2 /95% air for 5 days. ChAT activity was measured as described in Example III(A)(1).
Recombinant rat NT-3 was produced by using a recombinant baculovirus expression vector under the control of the polyhedron virus promoter (Fraser, In Vitro Cell. and Dev. Biol. 25:225-235 (1989)). The plasmid pXM-NT3 (Hallbook et al., Neuron 6:845-858 (1991), which contained the rat NT-3 cDNA clone, was provided by Dr. Ira Black (University of Medicine and Dentistry of New Jersey, Piscataway, N.J.). NT-3 cDNA was subcloned into the transfer vector pVL1392 (In Vitrogen Corp., San Diego, Calif.) for recombinant virus production. Recombinant baculovirus was produced as described in Meyer et al. (Meyer at al., J. Neurochem 62:825-833 (1994)).

protein kinase C = experiment: PKC Activity Inhibition Assay; assay type: biochemical
Protocol: Fused pyrrolocarbazoles inhibited the activity of protein kinase C (Table VI). The protein kinase C assay has been disclosed (Murakata et al., U.S. Pat. No. 4,923,986; Kikkawa et al., J. Biol. Chem. 257:13341-13348 (1982)). The assay was performed with several concentrations of fused pyrrolocarbazoles. The concentration at which protein kinase C was 50% inhibited (IC50) was determined.

trkA tyrosine kinase = trkA tyrosine kinase (Homo sapiens, UniProt P04629); experiment: trkA Tyrosine Kinase Activity Inhibition Assay (ELISA); assay type: biochemical; settings: 16 μM ATP, 37° C., 15 min; read-out: INHIBITION OF trkA KINASE IC50
Chain of trkA tyrosine kinase (P04629 33-796): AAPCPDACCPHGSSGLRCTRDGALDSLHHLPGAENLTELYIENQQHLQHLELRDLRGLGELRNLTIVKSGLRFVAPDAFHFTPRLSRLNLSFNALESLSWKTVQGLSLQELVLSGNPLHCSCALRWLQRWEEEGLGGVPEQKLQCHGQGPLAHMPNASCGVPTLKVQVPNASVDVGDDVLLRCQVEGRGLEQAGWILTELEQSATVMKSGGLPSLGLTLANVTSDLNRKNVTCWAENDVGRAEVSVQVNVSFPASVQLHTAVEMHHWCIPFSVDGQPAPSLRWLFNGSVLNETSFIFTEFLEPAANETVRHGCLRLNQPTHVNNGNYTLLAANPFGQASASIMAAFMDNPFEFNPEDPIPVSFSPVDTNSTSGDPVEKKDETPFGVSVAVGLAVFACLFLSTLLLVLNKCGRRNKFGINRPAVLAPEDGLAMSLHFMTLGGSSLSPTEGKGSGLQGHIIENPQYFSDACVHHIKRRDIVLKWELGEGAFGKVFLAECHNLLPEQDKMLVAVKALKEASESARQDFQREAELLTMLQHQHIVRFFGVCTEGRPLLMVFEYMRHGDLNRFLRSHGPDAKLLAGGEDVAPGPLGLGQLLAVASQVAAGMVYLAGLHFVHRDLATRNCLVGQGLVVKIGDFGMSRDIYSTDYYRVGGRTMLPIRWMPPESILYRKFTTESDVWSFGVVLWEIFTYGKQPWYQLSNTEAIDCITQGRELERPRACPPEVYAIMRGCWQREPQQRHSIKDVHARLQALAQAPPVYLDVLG

Compound: COC(=O)[C@@]1(O)C[C@H]2O[C@]1(C)n1c3ccccc3c3c4c(c5c6ccccc6n2c5c31)C(=O)NC4 [Compound K-252a]
inhibition of protein kinase C (protein kinase C ("PKC")): inhibitor
inhibition of trk tyrosine kinase (trk tyrosine kinase): inhibitor
inhibition of transcription of IFNα genes [1]: inhibit the transcription of IFNα genes
NGF-stimulated proliferation of human keratinocytes (human keratinocytes): prevents such proliferation

IC50 (protein kinase C): 0.07 µM
IC50 (trkA tyrosine kinase): > 1 µM
Compound: O=C1NC(=O)c2c1c1c(c3[nH]c4ccccc4c23)Cc2ccccc2-1 [Compound I-1, 6H, 12H, 13H-Indeno[2,3-a]pyrrolo[3,4-c]carbazole-5,7(5H, 7H))-dione]
Spinal Cord ChAT Activity, % of Control, untreated cultures [2]: 148 % of Control
ChAT Activity (% of Control) ([3]; 100 nM): inactive
ChAT Activity (% of Control) ([3]; 250 nM): inactive
ChAT Activity (% of Control) ([3]; 500 nM): inactive
DRG Neurite Outgrowth [4]: modest number of neurites
ChAT activity in the absence of NT-3 ([5]; compound added alone to basal forebrain neurons, no NT-3): no effect on ChAT activity
ChAT activity in the presence of NT-3 ([5]; with 100 ng/ml NT-3): enhanced ChAT activity

Compound: NGF: a neurotrophin known to promote neurite extension in DRG cultures
proliferation of human keratinocytes (human keratinocytes): stimulates the proliferation of human keratinocytes in culture
